# From patent publication US12240862B2, “Inhibitors of peptidylarginine deiminases” (Gilead Sciences, Inc., priority 2020, dated 2025)
# pIC50: −log10 of the molar value.
# Biological target: T1, human PAD4 (Homo sapiens, UniProt Q9UM07)
# T1 construct: human PAD4 (NM_012387), A2P663, was PCR amplified; His-SUMO (N, cleaved yes); made in house; host or cells: E. coli BL21(DE3)
# Assay: In vitro PAD4 BAEE biochemical assay
# Details: human PAD4, BAEE substrate; 5 nM PAD4, 2 mM calcium chloride, 3 mM BAEE; geometric mean of multiple experiments
# Protocol: The PCR product was ligated into linearized pET-SUMO vector (Invitrogen, Carlsbad, CA), which is part of the Champion™ pET SUMO Protein Expression System. After sequence verification for the correct orientation, the pET-SUMO-hPAD4 expression plasmid was transformed into BL21(DE3) cells.
# E. Coli BL21(DE3) cells were inoculated in LB medium with kanamycin at 37° C. until A600 nm reached about 0.5. Protein expression was induced by addition of 0.5 mM IPTG (final) and continued overnight at 16° C. at 220 rpm.
# Cells were harvested by centrifugation at 5000 rpm for 10 minutes at 4° C. The pellet was resuspended in 300 ml lysis buffer (20 mM Tris-HCl, pH 8.0, 1 mM EDTA, 500 mM NaCl, 1 mM (tris(2-carboxyethyl)phosphine) (TCEP), 10% glycerol, and 1% Triton X100 and EDTA free protease inhibitor) and lysed by 3× passage through a microfluidizer (Microfluidics, Newton, MA) at 18,000 psi. The cell lysate was clarified by centrifugation at 30,000 rpm for 60 minutes at 4° C. […] Bound protein was eluted with a 0-100% linear gradient of 100 mL Ni-B buffer (Ni A buffer+0.5 M Imidazole).
# The protein was then reloaded onto a Ni—HP column for a reverse purification step and recovered in flow through fraction. The protein with His-Sumo tag removed was then polished using a 16/60 Superdex-200 gel filtration column with gel filtration buffer (20 mM Tris pH 8.0, NaCl 400 mM and 1 mM TCEP). The fractions containing the protein were pulled and frozen at −80° C.
# The enzymatic activity of human PAD4 was monitored in a biochemical assay in the presence or absence of compounds using the small peptidyl arginine mimic BAEE (Na-Benzoyl-L-arginine ethyl ester hydrochloride) as substrate. PAD4 activity led to deamination of BAEE and release of ammonia. Levels of ammonia were monitored by using an amine coupling reaction and were indicative of PAD4 enzymatic activity.
# One hundred nanoliters of test compounds dissolved in DMSO at various concentrations were dispensed into a 384-well black OptiPlate using a Labcyte Echo instrument. Ten microliters of a solution of recombinant PAD4 and calcium chloride diluted in PAD4 assay buffer (50 mM MOPS [3-(N-morpholino) propanesulfonic acid], pH 7.6; 50 mM sodium chloride; 0.05% Tween-20; 2 mM dithiothreitol) was added to the compound-containing plate and was incubated for 30 minutes at 25° C. Ten microliters of a solution of BAEE (Sigma-Aldrich #B4500) diluted in PAD4 assay buffer was then added to start the reaction. Final concentrations were 5 nM PAD4, 2 mM calcium chloride, and 3 mM BAEE. The reaction mixture was incubated at 25° C. for 2 hours and was stopped with the addition of 10 microliters of a solution of 75 mM EDTA (Ethylenediaminetetraacetic acid) in PAD4 assay buffer. Thirty microliters of detection solution (5 mM o-phthalaldehyde, 50 mM MOPS [3-(N-morpholino) propanesulfonic acid], pH 7.6; 50 mM sodium chloride; 0.05% Tween-20; 5 mM dithiothreitol) was then added and the reaction was incubated for 1 hour at 25° C.
# T1 sequence (Q9UM07 2-663): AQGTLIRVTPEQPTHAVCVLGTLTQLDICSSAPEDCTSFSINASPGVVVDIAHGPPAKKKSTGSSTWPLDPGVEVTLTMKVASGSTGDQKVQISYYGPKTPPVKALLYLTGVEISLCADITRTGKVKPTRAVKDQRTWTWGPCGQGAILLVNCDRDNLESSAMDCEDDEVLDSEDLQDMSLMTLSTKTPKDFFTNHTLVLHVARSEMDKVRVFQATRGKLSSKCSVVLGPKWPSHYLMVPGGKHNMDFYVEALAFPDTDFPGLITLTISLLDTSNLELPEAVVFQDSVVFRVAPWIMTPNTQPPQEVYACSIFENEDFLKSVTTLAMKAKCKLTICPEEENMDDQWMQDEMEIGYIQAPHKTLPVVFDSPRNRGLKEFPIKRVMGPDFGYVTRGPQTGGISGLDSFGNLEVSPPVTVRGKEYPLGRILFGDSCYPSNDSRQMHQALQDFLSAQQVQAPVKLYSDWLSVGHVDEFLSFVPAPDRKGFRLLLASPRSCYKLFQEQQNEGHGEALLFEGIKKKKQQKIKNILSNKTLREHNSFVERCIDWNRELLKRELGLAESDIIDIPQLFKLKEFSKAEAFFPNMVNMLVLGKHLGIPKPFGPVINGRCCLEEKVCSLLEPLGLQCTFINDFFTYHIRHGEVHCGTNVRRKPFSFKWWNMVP
row,Compound,pIC50
1,"COc1cc(C(=O)N2[C@H]3CC[C@@H]2[C@H](N)C3)cc2nc(-c3cc4ccc([C@@H](C)NC(=O)N(C(C)C)C(C)C)nc4n3CC3CC3)c(C)n12 [Example 236, 3-[(1~{R})-1-[2-[7-[(1~{R},2~{R},4~{S})-2-amino-7-azabicyclo[2.2.1]heptane-7-carbonyl]-5-methoxy-3-methylimidazo [1,2-a]pyridin-2-yl]-1-(cyclopropylmethyl)pyrrolo [2,3-b]pyridin-6-yl]ethyl]-1,1-di(propan-2-yl)urea]",7.25
2,"COc1cc(C(=O)N2[C@H]3CC[C@@H]2[C@H](N)C3)cc2nc(-c3cc4ccc([C@@H](C)N5C(=O)CCC5C)nc4n3CC3CC3)c(C)n12 (stereo partly shown) [Example 269, 1-[(1~{R})-1-[2-[7-[(1~{R},2~{R},4~{S})-2-amino-7-azabicyclo[2.2.1]heptane-7-carbonyl]-5-methoxy-3-methylimidazo [1,2-a]pyridin-2-yl]-1-(cyclopropylmethyl)pyrrolo [2,3-b]pyridin-6-yl]ethyl]-5-methylpyrrolidin-2-one]",7.17
3,"CS(=O)(=O)N(c1ccc2cc(-c3nc4cc(C(=O)N5[C@@H]6CC[C@@H](N)[C@H]5CC6)ccn4c3CC3CC3)n(CC3CC3)c2n1)C(F)F [Example 436, ~{N}-[2-[7-[(1~{R},2~{R}, 5~{R})-2-amino-8-azabicyclo[3.2.1]octane-8-carbonyl]-3-(cyclopropylmethyl)imidazo [1,2-a]pyridin-2-yl]-1-(cyclopropylmethyl)pyrrolo [2,3-b]pyridin-6-yl]-~{N}-(difluoromethyl) methanesulfonamide]",6.69
4,"COc1cc(C(=O)N2C[C@@H]3CCNCC32)cc2nc(-c3cc4ccc(N(C(F)F)S(C)(=O)=O)nc4n3CC3CC3)c(C)n12 (stereo partly shown) [Example 287, ~{N}-[1-(cyclopropylmethyl)-2-[7-[(6~{S},8~{R})-3,8-diazabicyclo[4.2.0]octane-8-carbonyl]-5-methoxy-3-methylimidazo[1,2-a]pyridin-2-yl]pyrrolo[2,3-b]pyridin-6-yl]-~{N}-(difluoromethyl) methanesulfonamide]",4.33
5,"COc1cc(C(=O)N2CCC[C@@H](N)C2)cc2nc(-c3cc4ccc(-c5cccc6c5CN(C)C6=O)nc4n3CC3CC3)c(C)n12 [Example 601, 4-[2-[7-[(3~{R})-3-aminopiperidine-1-carbonyl]-5-methoxy-3-methylimidazo[1,2-a]pyridin-2-yl]-1-(cyclopropylmethyl)pyrrolo[2,3-b]pyridin-6-yl]-2-methyl-3~{H}-isoindol-1-one]",5.16
6,"COc1cc(C(=O)N[C@H]2CNCC[C@@H]2C)cc2nc(-c3cc4ccc(N(C(F)F)S(C)(=O)=O)nc4n3CC3CC3)c(C)n12 [Example 288, 2-[1-(cyclopropylmethyl)-6-[difluoromethyl (methylsulfonyl)amino]pyrrolo[2,3-b]pyridin-2-yl]-5-methoxy-3-methyl-~{N}-[(3~{R},4~{S})-4-methylpiperidin-3-yl]imidazo[1,2-a]pyridine-7-carboxamide]",5.08
7,"COc1cc(C(=O)N2[C@H]3CC[C@@H]2[C@H](N)C3)cc2nc(-c3cc4ccc([C@@H](C)NC(=O)c5ncccn5)nc4n3CC3CC3)c(C)n12 [Example 118, ~{N}-[(1~{R})-1-[2-[7-[(1~{R},2~{R},4~{S})-2-amino-7-azabicyclo[2.2.1]heptane-7-carbonyl]-5-methoxy-3-methylimidazo [1,2-a]pyridin-2-yl]-1-(cyclopropylmethyl)pyrrolo [2,3-b]pyridin-6-yl]ethyl]pyrimidine-2-carboxamide]",7.20
8,"COc1cc(C(=O)N2C[C@@H](F)[C@@H](N)C2)cc2nc(-c3cc4ccc(N(C(F)F)S(C)(=O)=O)nc4n3CC3CC3)c(C)n12 [Example 291, ~{N}-[2-[7-[(3~{S}, 4~{R})-3-amino-4-fluoropyrrolidine-1-carbonyl]-5-methoxy-3-methylimidazo [1,2-a]pyridin-2-yl]-1-(cyclopropylmethyl)pyrrolo [2,3-b]pyridin-6-yl]-~{N}-(difluoromethyl) methanesulfonamide]",5.20
9,CCC1CC2CN(C(=O)c3cc(OC)n4c(C)c(-c5cc6ccc(N(C(F)F)S(C)(=O)=O)nc6n5CC5CC5)nc4c3)C1C2N (stereo not shown) [Example 370],4.77
10,"COc1cc(C(=O)N2CCC[C@@H](N)C2)cc2nc(-c3cc4ccc([C@@H](C)N5CCOC5=O)nc4n3CC3CC3)c(C)n12 [Example 278, 3-[(1~{R})-1-[2-[7-[(3~{R})-3-aminopiperidine-1-carbonyl]-5-methoxy-3-methylimidazo [1,2-a]pyridin-2-yl]-1-(cyclopropylmethyl)pyrrolo [2,3-b]pyridin-6-yl]ethyl]-1,3-oxazolidin-2-one]",6.84
11,"COc1cc(C(=O)N2[C@H]3CC[C@@H]2[C@H](N)C3)cc2nc(-c3cc4ccc(N5CCCOC5=O)nc4n3CC3CC3)c(C)n12 [Example 464, 3-[2-[7-[(1~{R},2~{R}, 4~{S})-2-amino-7-azabicyclo[2.2.1]heptane-7-carbonyl]-5-methoxy-3-methylimidazo[1,2-a]pyridin-2-yl]-1-(cyclopropylmethyl)pyrrolo [2,3-b]pyridin-6-yl]-1,3-oxazinan-2-one]",7.00
12,"CCc1ccc2cc(-c3nc4cc(C(=O)N5CCC[C@@H](N)C5)cc(OC)n4c3C3CC3)n(CC3CC3)c2n1 [Example 585, [(3~{R})-3-aminopiperidin-1-yl]-[3-cyclopropyl-2-[1-(cyclopropylmethyl)-6-ethylpyrrolo[2,3-b]pyridin-2-yl]-5-methoxyimidazo [1,2-a]pyridin-7-yl]methanone]",6.76
13,COc1cc(C(=O)N2[C@H]3CC[C@@H]2[C@H](N)C3)cc2nc(-c3cc4ccc([C@@H](C)NC(=O)c5ccccc5)nc4n3CC3CC3)c(C)n12 [Example 176],7.05
14,"COc1cc(C(=O)N2[C@H]3CC[C@@H]2[C@H](N)C3)cc2nc(-c3cc4ccc([C@@H](C)NC(=O)N5CC(C(N)=O)C5)nc4n3CC3CC3)c(C)n12 [Example 225, 1-~{N}-[(1~{R})-1-[2-[7-[(1~{R},2~{R},4~{S})-2-amino-7-azabicyclo[2.2.1]heptane-7-carbonyl]-5-methoxy-3-methylimidazo [1,2-a]pyridin-2-yl]-1-(cyclopropylmethyl)pyrrolo [2,3-b]pyridin-6-yl]ethyl]azetidine-1,3-dicarboxamide]",7.09
15,"CCc1ccc2cc(-c3nc4cc(C(=O)N5C[C@]6(N)CC[C@H]5C6)cc(OC)n4c3C)n(CC3CC3)c2n1 [Example 587, [(1~{S},4~{S})-4-amino-2-azabicyclo[2.2.1]heptan-2-yl]-[2-[1-(cyclopropylmethyl)-6-ethylpyrrolo[2,3-b]pyridin-2-yl]-5-methoxy-3-methylimidazo[1,2-a]pyridin-7-yl]methanone]",5.35
16,"CNc1cc(C(=O)N2CCC[C@@H](N)C2)cc2nc(-c3cc4ccc(N(C(F)F)S(C)(=O)=O)nc4n3CC3CC3)c(C)n12 [Example 421, ~{N}-[2-[7-[(3~{R})-3-aminopiperidine-1-carbonyl]-3-methyl-5-(methylamino)imidazo[1,2-a]pyridin-2-yl]-1-(cyclopropylmethyl)pyrrolo [2,3-b]pyridin-6-yl]-~{N}-(difluoromethyl) methanesulfonamide]",6.47
